Data: the kinase profiling compilation of Christmann-Franck et al. (2016)

Tests used:
Assay in all cases: KINOMEscan competition binding
Conditions in all cases: compound 10.0 µM
PKN2 (human) = PKN2 (human) (UniProt Q16513)
[1] = molecular target: TYK2 JH2 pseudokinase (human) (UniProt P29597)
NEK7 (human) = NEK7 (human) (UniProt Q8TDX7)
ACVRL1 (human) = ACVRL1 (human) (UniProt P37023)
MYO3B (human) = MYO3B (human) (UniProt Q8WXR4)
PLK1 (human) = PLK1 (human) (UniProt P53350)
YSK4 (human) = YSK4 (human) (UniProt Q56UN5)
STK32A (human) = STK32A (human) (UniProt Q8WU08)
STK32A (human), sequence (Q8WU08 whole entry, looked up): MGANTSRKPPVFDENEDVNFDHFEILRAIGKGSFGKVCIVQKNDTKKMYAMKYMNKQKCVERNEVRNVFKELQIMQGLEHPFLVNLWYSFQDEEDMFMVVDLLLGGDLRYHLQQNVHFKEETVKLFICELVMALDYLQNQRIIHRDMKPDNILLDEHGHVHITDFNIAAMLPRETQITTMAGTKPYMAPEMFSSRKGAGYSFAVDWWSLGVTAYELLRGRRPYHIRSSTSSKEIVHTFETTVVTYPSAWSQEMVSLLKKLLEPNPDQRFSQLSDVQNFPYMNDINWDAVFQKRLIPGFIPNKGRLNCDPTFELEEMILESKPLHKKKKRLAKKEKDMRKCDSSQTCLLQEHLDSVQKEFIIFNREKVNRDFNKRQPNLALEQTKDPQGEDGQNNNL

MYLK4 (human) = MYLK4 (human) (UniProt Q86YV6)
MYLK4 (human), sequence (Q86YV6 whole entry, looked up): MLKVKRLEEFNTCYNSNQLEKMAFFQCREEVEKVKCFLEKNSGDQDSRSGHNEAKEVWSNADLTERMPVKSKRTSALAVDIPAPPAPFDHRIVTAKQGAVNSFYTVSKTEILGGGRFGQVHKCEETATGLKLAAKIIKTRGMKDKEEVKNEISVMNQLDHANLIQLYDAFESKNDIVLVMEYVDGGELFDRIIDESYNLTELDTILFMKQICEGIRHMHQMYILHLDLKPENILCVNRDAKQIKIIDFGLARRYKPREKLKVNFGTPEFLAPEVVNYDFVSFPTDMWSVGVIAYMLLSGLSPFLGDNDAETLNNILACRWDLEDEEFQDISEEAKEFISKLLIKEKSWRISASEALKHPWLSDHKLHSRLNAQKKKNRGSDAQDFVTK

MAP2K6 (human) = MAP2K6 (human) (UniProt P52564)
ACVR1B (human) = ACVR1B (human) (UniProt P36896)
ACVR1B (human), sequence (P36896 whole entry, looked up): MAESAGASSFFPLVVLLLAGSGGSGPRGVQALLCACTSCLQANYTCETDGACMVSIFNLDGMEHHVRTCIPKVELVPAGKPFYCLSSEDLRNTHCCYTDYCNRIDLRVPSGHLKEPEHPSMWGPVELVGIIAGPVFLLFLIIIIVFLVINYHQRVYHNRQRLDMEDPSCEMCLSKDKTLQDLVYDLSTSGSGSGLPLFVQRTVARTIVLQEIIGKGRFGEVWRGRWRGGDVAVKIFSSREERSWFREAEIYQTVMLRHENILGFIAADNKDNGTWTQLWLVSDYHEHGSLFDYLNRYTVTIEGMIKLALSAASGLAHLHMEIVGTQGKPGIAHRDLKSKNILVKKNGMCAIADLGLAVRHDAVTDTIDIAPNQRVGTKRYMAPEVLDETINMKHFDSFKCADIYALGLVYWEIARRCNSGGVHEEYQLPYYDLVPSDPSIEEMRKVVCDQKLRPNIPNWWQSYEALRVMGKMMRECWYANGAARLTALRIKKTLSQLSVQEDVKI

GAK (human) = GAK (human) (UniProt O14976)
PRKCQ (human) = PRKCQ (human) (UniProt Q04759)
CSNK1G3 (human) = CSNK1G3 (human) (UniProt Q9Y6M4)
[2] = test system: FLT3 (human), P36888 [K663Q]
CAMK4 (human) = CAMK4 (human) (UniProt Q16566)
STK39 (human) = STK39 (human) (UniProt Q9UEW8)
FGR (human) = FGR (human) (UniProt P09769)
FGR (human), sequence (P09769 whole entry, looked up): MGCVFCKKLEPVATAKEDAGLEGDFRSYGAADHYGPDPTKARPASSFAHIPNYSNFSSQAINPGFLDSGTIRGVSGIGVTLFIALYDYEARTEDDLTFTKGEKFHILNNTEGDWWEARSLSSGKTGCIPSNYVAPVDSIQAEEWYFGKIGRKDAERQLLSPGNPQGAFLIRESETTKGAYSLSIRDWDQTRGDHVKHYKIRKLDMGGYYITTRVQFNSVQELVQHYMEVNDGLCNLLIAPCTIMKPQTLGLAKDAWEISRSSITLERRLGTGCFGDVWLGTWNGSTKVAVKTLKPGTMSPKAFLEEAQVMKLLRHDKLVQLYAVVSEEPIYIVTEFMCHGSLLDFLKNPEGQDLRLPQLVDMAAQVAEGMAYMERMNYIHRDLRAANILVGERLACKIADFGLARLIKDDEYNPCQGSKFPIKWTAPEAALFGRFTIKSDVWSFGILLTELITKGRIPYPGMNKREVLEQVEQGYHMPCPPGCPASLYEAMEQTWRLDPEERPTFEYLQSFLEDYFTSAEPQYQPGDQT

TTK (human) = TTK (human) (UniProt P33981)
DAPK1 (human) = DAPK1 (human) (UniProt P53355)
PLK2 (human) = PLK2 (human) (UniProt Q9NYY3)
PRKACB (human) = PRKACB (human) (UniProt P22694)
MST4 (human) = MST4 (human) (UniProt Q9P289)
FGFR4 (human) = FGFR4 (human) (UniProt P22455)
CAMK2B (human) = CAMK2B (human) (UniProt Q13554)
CIT (human) = CIT (human) (UniProt O14578)
CIT (human), sequence (O14578 whole entry, looked up): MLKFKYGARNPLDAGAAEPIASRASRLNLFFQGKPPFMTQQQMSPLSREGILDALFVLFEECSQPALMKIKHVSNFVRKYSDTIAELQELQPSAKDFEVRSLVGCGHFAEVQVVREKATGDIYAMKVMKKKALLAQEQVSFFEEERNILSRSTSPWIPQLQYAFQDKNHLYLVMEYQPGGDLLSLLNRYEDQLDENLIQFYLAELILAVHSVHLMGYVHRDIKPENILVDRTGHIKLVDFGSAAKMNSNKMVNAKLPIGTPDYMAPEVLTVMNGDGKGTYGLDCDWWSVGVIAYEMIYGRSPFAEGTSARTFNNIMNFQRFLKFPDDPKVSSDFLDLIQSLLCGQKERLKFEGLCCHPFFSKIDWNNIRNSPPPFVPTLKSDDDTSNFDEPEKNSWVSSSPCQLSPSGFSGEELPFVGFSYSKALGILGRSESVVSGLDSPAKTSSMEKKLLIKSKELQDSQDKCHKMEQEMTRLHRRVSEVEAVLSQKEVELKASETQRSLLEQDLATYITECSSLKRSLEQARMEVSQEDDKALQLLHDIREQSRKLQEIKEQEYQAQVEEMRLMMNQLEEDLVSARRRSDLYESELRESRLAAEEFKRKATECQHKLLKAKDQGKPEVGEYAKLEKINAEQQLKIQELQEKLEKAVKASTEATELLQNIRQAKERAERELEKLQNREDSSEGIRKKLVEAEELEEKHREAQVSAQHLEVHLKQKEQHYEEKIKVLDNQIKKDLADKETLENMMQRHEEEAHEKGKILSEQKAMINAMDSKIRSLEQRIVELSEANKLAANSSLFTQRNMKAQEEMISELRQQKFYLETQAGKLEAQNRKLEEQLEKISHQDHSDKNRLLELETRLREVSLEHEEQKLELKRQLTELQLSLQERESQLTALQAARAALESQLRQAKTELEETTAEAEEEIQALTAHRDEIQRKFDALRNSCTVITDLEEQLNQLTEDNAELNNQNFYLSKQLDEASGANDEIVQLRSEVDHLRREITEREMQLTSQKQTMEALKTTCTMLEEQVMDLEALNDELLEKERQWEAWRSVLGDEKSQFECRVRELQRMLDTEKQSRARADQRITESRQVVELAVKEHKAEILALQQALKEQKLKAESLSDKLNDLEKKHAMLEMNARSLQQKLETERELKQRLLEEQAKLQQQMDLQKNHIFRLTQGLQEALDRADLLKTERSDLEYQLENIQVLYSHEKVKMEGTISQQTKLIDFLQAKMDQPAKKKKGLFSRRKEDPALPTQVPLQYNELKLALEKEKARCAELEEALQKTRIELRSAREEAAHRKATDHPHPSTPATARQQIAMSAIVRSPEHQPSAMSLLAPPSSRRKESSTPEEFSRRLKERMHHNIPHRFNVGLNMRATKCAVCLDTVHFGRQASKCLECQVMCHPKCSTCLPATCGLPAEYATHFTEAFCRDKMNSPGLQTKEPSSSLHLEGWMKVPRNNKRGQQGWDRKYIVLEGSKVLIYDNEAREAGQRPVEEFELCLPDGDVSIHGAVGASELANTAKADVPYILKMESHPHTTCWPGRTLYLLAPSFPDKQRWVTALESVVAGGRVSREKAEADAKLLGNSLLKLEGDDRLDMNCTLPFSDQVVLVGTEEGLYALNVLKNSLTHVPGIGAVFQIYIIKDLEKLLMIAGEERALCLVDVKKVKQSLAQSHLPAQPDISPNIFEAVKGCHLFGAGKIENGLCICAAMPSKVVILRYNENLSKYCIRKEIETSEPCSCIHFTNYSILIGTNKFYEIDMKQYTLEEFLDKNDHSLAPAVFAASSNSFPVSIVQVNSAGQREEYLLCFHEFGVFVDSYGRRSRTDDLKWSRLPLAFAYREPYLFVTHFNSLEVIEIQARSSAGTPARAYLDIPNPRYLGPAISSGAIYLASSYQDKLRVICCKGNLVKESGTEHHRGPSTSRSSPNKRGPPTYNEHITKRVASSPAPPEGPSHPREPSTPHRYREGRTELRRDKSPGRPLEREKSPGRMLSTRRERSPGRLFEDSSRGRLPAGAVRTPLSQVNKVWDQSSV

RPS6KA6 KD2 (human) = RPS6KA6 KD2 (human) (UniProt Q9UK32)
MAP4K3 (human) = MAP4K3 (human) (UniProt Q8IVH8)
BTK (human) = BTK (human) (UniProt Q06187)
BTK (human), sequence (Q06187 whole entry, looked up): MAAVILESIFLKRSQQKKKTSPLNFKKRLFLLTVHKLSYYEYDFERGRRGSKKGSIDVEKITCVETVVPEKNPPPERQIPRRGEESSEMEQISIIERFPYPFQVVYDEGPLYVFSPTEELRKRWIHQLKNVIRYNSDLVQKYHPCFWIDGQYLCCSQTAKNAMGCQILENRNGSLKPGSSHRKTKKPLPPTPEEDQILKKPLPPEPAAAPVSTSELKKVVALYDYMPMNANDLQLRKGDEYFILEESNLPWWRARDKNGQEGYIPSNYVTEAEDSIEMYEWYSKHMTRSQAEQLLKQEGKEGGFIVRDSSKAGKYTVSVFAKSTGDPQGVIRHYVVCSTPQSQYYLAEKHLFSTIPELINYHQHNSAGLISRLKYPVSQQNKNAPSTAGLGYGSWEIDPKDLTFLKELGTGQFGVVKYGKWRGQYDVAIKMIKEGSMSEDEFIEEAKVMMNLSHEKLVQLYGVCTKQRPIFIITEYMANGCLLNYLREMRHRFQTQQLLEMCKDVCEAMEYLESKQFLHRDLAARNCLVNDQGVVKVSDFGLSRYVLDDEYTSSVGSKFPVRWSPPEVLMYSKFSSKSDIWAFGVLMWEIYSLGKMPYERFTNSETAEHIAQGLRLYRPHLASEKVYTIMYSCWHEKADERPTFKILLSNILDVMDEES

RPS6KA4 KD1 (human) = RPS6KA4 KD1 (human) (UniProt O75676)
MAP2K4 (human) = MAP2K4 (human) (UniProt P45985)
CDC42BPA (human) = CDC42BPA (human) (UniProt Q5VT25)
ERN1 (human) = ERN1 (human) (UniProt O75460)
[3] = test system: PIK3CA (human), P42336 [Q546K]
PRKAA2 (human) = PRKAA2 (human) (UniProt P54646)
EIF2AK2 (human) = EIF2AK2 (human) (UniProt P19525)
EIF2AK2 (human), sequence (P19525 whole entry, looked up): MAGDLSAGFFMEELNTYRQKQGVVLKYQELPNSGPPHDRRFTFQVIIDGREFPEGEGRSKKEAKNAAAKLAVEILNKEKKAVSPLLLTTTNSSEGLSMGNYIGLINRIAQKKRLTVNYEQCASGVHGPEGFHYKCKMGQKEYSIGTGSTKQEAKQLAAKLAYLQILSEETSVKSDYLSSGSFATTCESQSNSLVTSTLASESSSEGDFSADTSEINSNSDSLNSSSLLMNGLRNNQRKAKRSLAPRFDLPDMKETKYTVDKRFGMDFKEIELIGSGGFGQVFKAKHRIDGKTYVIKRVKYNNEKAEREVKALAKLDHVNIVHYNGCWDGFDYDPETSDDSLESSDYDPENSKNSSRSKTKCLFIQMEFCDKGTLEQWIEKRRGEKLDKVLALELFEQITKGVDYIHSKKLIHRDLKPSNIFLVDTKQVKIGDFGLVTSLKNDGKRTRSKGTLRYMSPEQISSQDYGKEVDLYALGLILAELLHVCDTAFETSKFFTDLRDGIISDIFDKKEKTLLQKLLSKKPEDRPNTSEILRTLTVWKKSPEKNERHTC

ERBB2 (human) = ERBB2 (human) (UniProt P04626)
TLK2 (human) = TLK2 (human) (UniProt Q86UE8)
CaMK1 (human) = CaMK1 (human) (UniProt Q14012)
MAPK6 (human) = MAPK6 (human) (UniProt Q16659)

In the case of `Cc1ccc2nc(NCCN)c3ncc(C)n3c2c1`, the kinase still bound, per cent of control (PKN2 (human)) is reported as 71%, the kinase still bound, per cent of control [1] is reported as 15% and the kinase still bound, per cent of control (NEK7 (human)) is reported as 100%. For the same compound, the kinase still bound, per cent of control (ACVRL1 (human)) was 93%, the kinase still bound, per cent of control (MYO3B (human)) was 100% and the kinase still bound, per cent of control (PLK1 (human)) was 100%. It also gave a kinase still bound, per cent of control (YSK4 (human)) of 16%, a kinase still bound, per cent of control (STK32A (human)) of 100% and a kinase still bound, per cent of control (MYLK4 (human)) of 8.8%. The kinase still bound, per cent of control (MAP2K6 (human)) was 88%, the kinase still bound, per cent of control (ACVR1B (human)) was 97% and the kinase still bound, per cent of control (GAK (human)) was 79%. The kinase still bound, per cent of control (PRKCQ (human)) was 99%, the kinase still bound, per cent of control (CSNK1G3 (human)) was 100% and the kinase still bound, per cent of control [2] was 92%. The kinase still bound, per cent of control (CAMK4 (human)) was 100%, the kinase still bound, per cent of control (STK39 (human)) was 100% and the kinase still bound, per cent of control (FGR (human)) was 100%. For the same compound, the kinase still bound, per cent of control (TTK (human)) was 100%, the kinase still bound, per cent of control (DAPK1 (human)) was 47% and the kinase still bound, per cent of control (PLK2 (human)) was 100%. It also gave a kinase still bound, per cent of control (PRKACB (human)) of 100%, a kinase still bound, per cent of control (MST4 (human)) of 95% and a kinase still bound, per cent of control (FGFR4 (human)) of 100%. It also gave a kinase still bound, per cent of control (CAMK2B (human)) of 73%, a kinase still bound, per cent of control (CIT (human)) of 100% and a kinase still bound, per cent of control (RPS6KA6 KD2 (human)) of 40%. It also gave a kinase still bound, per cent of control (MAP4K3 (human)) of 80%, a kinase still bound, per cent of control (BTK (human)) of 100% and a kinase still bound, per cent of control (RPS6KA4 KD1 (human)) of 100%. For the same compound, the kinase still bound, per cent of control (MAP2K4 (human)) was 100%, the kinase still bound, per cent of control (CDC42BPA (human)) was 85% and the kinase still bound, per cent of control (ERN1 (human)) was 88%. The kinase still bound, per cent of control [3] was 38%, the kinase still bound, per cent of control (PRKAA2 (human)) was 100% and the kinase still bound, per cent of control (EIF2AK2 (human)) was 100%. It also gave a kinase still bound, per cent of control (ERBB2 (human)) of 100%, a kinase still bound, per cent of control (TLK2 (human)) of 88% and a kinase still bound, per cent of control (CaMK1 (human)) of 98%. The kinase still bound, per cent of control (MAPK6 (human)) was 27%.
In the case of `O=C(NC1CC1)c1cccc(-c2ccc3c(NC(=O)C4CC4)n[nH]c3c2)c1`, the kinase still bound, per cent of control (PKN2 (human)) is reported as 78%, the kinase still bound, per cent of control [1] is reported as 32% and the kinase still bound, per cent of control (NEK7 (human)) is reported as 100%. The kinase still bound, per cent of control (ACVRL1 (human)) was 100%, the kinase still bound, per cent of control (MYO3B (human)) was 93% and the kinase still bound, per cent of control (PLK1 (human)) was 78%. The kinase still bound, per cent of control (YSK4 (human)) was 5.9%, the kinase still bound, per cent of control (STK32A (human)) was 78% and the kinase still bound, per cent of control (MYLK4 (human)) was 42%. The kinase still bound, per cent of control (MAP2K6 (human)) was 55%, the kinase still bound, per cent of control (ACVR1B (human)) was 59% and the kinase still bound, per cent of control (GAK (human)) was 49%. It also gave a kinase still bound, per cent of control (PRKCQ (human)) of 100%, a kinase still bound, per cent of control (CSNK1G3 (human)) of 98% and a kinase still bound, per cent of control [2] of 61%. The kinase still bound, per cent of control (CAMK4 (human)) was 100%, the kinase still bound, per cent of control (STK39 (human)) was 99% and the kinase still bound, per cent of control (FGR (human)) was 100%. It also gave a kinase still bound, per cent of control (TTK (human)) of 42%, a kinase still bound, per cent of control (DAPK1 (human)) of 91% and a kinase still bound, per cent of control (PLK2 (human)) of 88%. For the same compound, the kinase still bound, per cent of control (PRKACB (human)) was 100%, the kinase still bound, per cent of control (MST4 (human)) was 94% and the kinase still bound, per cent of control (FGFR4 (human)) was 94%. It also gave a kinase still bound, per cent of control (CAMK2B (human)) of 84%, a kinase still bound, per cent of control (CIT (human)) of 89% and a kinase still bound, per cent of control (RPS6KA6 KD2 (human)) of 60%. The kinase still bound, per cent of control (MAP4K3 (human)) was 60%, the kinase still bound, per cent of control (BTK (human)) was 100% and the kinase still bound, per cent of control (RPS6KA4 KD1 (human)) was 100%. The kinase still bound, per cent of control (MAP2K4 (human)) was 66%, the kinase still bound, per cent of control (CDC42BPA (human)) was 87% and the kinase still bound, per cent of control (ERN1 (human)) was 100%. It also gave a kinase still bound, per cent of control [3] of 98%, a kinase still bound, per cent of control (PRKAA2 (human)) of 45% and a kinase still bound, per cent of control (EIF2AK2 (human)) of 85%. The kinase still bound, per cent of control (ERBB2 (human)) was 100%, the kinase still bound, per cent of control (TLK2 (human)) was 79% and the kinase still bound, per cent of control (CaMK1 (human)) was 84%. It also gave a kinase still bound, per cent of control (MAPK6 (human)) of 78%.
With `C=CC(=O)Nc1cccc(Nc2nc(N[C@H]3CC[C@H](N(C)C)CC3)nc3c2ncn3C(C)C)c1` the kinase still bound, per cent of control (PKN2 (human)) was 61%, the kinase still bound, per cent of control [1] was 100% and the kinase still bound, per cent of control (NEK7 (human)) was 76%. It also gave a kinase still bound, per cent of control (ACVRL1 (human)) of 100%, a kinase still bound, per cent of control (MYO3B (human)) of 100% and a kinase still bound, per cent of control (PLK1 (human)) of 21%. For the same compound, the kinase still bound, per cent of control (YSK4 (human)) was 15%, the kinase still bound, per cent of control (STK32A (human)) was 89% and the kinase still bound, per cent of control (MYLK4 (human)) was 88%. For the same compound, the kinase still bound, per cent of control (MAP2K6 (human)) was 100%, the kinase still bound, per cent of control (ACVR1B (human)) was 87% and the kinase still bound, per cent of control (GAK (human)) was 44%. The kinase still bound, per cent of control (PRKCQ (human)) was 3.6%, the kinase still bound, per cent of control (CSNK1G3 (human)) was 8.2% and the kinase still bound, per cent of control [2] was 1.2%. The kinase still bound, per cent of control (CAMK4 (human)) was 100%, the kinase still bound, per cent of control (STK39 (human)) was 51% and the kinase still bound, per cent of control (FGR (human)) was 14%. The kinase still bound, per cent of control (TTK (human)) was 51%, the kinase still bound, per cent of control (DAPK1 (human)) was 29% and the kinase still bound, per cent of control (PLK2 (human)) was 52%. It also gave a kinase still bound, per cent of control (PRKACB (human)) of 100%, a kinase still bound, per cent of control (MST4 (human)) of 16% and a kinase still bound, per cent of control (FGFR4 (human)) of 98%. For the same compound, the kinase still bound, per cent of control (CAMK2B (human)) was 80%, the kinase still bound, per cent of control (CIT (human)) was 50% and the kinase still bound, per cent of control (RPS6KA6 KD2 (human)) was 100%. It also gave a kinase still bound, per cent of control (MAP4K3 (human)) of 25%, a kinase still bound, per cent of control (BTK (human)) of 35% and a kinase still bound, per cent of control (RPS6KA4 KD1 (human)) of 59%. It also gave a kinase still bound, per cent of control (MAP2K4 (human)) of 76%, a kinase still bound, per cent of control (CDC42BPA (human)) of 82% and a kinase still bound, per cent of control (ERN1 (human)) of 96%. It also gave a kinase still bound, per cent of control [3] of 100%, a kinase still bound, per cent of control (PRKAA2 (human)) of 100% and a kinase still bound, per cent of control (EIF2AK2 (human)) of 78%. It also gave a kinase still bound, per cent of control (ERBB2 (human)) of 100%, a kinase still bound, per cent of control (TLK2 (human)) of 100% and a kinase still bound, per cent of control (CaMK1 (human)) of 93%. The kinase still bound, per cent of control (MAPK6 (human)) was 100%.
